Laboratory results as given in patent publication US20120101153A1, “ROCAGLAOL DERIVATIVES AS CARDIOPROTECTANT AGENTS AND AS ANTINEOPLASTIC AGENTS” (Universite De Strasbourg, priority 2008, published 2012).
Like-named read-outs stand apart in the source and are kept apart here.

What was measured:
[1] = system: HCT116 (colon adenocarcinoma); assay: MTS assay, inhibition of cell proliferation, HCT116; settings: Homo sapiens
Method: (§4) The human cell lines HCT116 (colon adenocarcinoma), PC3 (prostate adenocarcinoma) and HCT15 (colon adenocarcinoma) were obtained from ECACC (Wiltshire, UK).
(§5) The cell lines HCT116, HCT15, MCF7, MDA435, MDA231, PC3, OV3, HL60R and HL60 were grown in RPMI medium, in particular supplemented with 10% fetal calf serum, in the presence of penicillin, streptomycin and fungizone in 75 cm^2 flask under 5% CO2.
(§6) Cells were plated in 96-well tissue culture plates in 200 μl medium and cultured during 24 h before to be treated with compounds dissolved in DMSO (compound concentrations at a range of 0.5 nM to 10 μM) using a Biomek 2000 or 3000 (Beckman). Controls received the same volume of DMSO (1% final volume). After a 72 h exposure, MTS reagent (Promega) was added and incubated for 3 h at 37° C. The absorbance was then monitored at 490 nm and results were expressed as the value [1-(OD490 treated/OD490 control)×100] corresponding to the percentage of inhibition of cell proliferation.

[2] = system: Resistant MCF7 (MCF7R) cells; assay: MTS assay, inhibition of cell proliferation, MCF7R; assay type: cell-based; settings: Homo sapiens, 72 h
Excerpt: (§1) The medium was changed every 2-3 days.

[3] = system: HCT15 (colon adenocarcinoma); assay: MTS assay, inhibition of cell proliferation, HCT15; assay type: cell-based; settings: Homo sapiens, read-out: Inhibition of cell proliferation (IC50)
Excerpt: as §1

HepG2 (hepatocarcinoma) = assay: MTS assay, inhibition of cell proliferation, HepG2; assay type: cell-based; settings: Homo sapiens, read-out: Inhibition of cell proliferation (IC50)
Method: Experiments were performed in duplicate (n=3).

[4] = system: KB (epidermoid carcinoma); assay: MTS assay, inhibition of cell proliferation, KB; settings: Homo sapiens
Method: The human cell lines KB (epidermoid carcinoma) and HepG2 (hepatocarcinoma) were obtained from ECACC (Salisbury, UK) and grown in D-MEM medium supplemented with 10% fetal calf serum, in the presence of penicilline, streptomycine and fungizone in 75 cm^2 flask under 5% CO2.
as §6

[5] = system: HL60 (promyeocytic leukaemia); assay: MTS assay, inhibition of cell proliferation, HL60; settings: Homo sapiens
Method: (§7) The human cell lines HL60 (promyeocytic leukaemia), MDA435 (breast ductal carcinoma; ATCC reference HBT129) and MDA231 (breast adenocarcinoma; ATCC reference HBT26) were obtained from ATCC. […] SK-OV3 cells (or OV3, ATCC reference HTB77) were kindly provided by NCI (Frederick, Md.).
(§8) The cell lines HCT116, HCT15, MCF7, MDA435, MDA231, PC3, OV3, HL60R and HL60 were grown in RPMI medium, in particular supplemented with 10% fetal calf serum, in the presence of penicillin, streptomycin and fungizone in 75 cm^2 flask under 5% CO2. […] The medium was changed every 2-3 days.
as §6

[6] = system: MCF7 (breast adenocarcinoma); assay: MTS assay, inhibition of cell proliferation, MCF7; assay type: cell-based; settings: Homo sapiens, read-out: Inhibition of cell proliferation (IC50)
Excerpt: as §1

[7] = system: PC3 (prostate adenocarcinoma); assay: MTS assay, cytotoxicity, PC3; settings: Homo sapiens, read-out: Cytotoxicity (IC50)
Method: as §4, §5, §6

[8] = system: HL60R (resistant HL60 cells); assay: MTS assay, cytotoxicity, HL60R; settings: Homo sapiens, read-out: Cytotoxicity (IC50)
Method: as §5, §6

[9] = system: MDA231 (breast adenocarcinoma); assay: MTS assay, cytotoxicity, MDA231; settings: Homo sapiens, MDA-MB-231, read-out: Cytotoxicity (IC50)
Method: as §7, §8, §6

H9c2 cardiomyocytes [10] = settings: H9c2
Method: as §1
(§2) H9c2 cells were plated for 24 h in 100 mm Petri dishes at 0,7×10^4 cells/cm^2. Next, the cells were washed and cultured for 12 h in glucose-free medium (Gibco, DMEM w-L-glutamine, w/o D-glucose, sodium pyruvate) supplemented with only 1% fetal calf serum. […] Cells were washed, and subsequently FACS analyses were performed.
(§3) Apoptosis was analysed by fluorescence-activated cell sorting analysis (FACS-Calibur, Becton-Dickinson Biosciences). 0,5×10^6 cells were harvested, washed with Annexin Binding Buffer (0,01 M HEPES, 0,14 M NaCl, 2,5 mM CaCl2) and labeled with annexin V (dilution 1:50) and propidium iodide (6,7 μg/ml). All assays were performed at least in triplicate, and the results were analyzed by BD Cell Quest Pro software (Becton-Dickinson Biosciences, Le Pont De Claix, France).

mice = assay: In vivo cardioprotection against doxorubicin in mice
Method: Administration of FL3 (0.1 mg/kg i.p., 2×/day for 4 days) protected mice from the cardiotoxicity induced by doxorubicine (20 mg/kg i.p.): they observed a 70% survival rate for the mice that received FL3. The survival rate for the mouse who received the vehicle was only 30% (see Table 3).

SK-OV3 cells (OV3) = assay: MTS assay, cytotoxicity, OV3; settings: Homo sapiens, SK-OV-3, read-out: Cytotoxicity (IC50)
Method: as §7, §8, §6

[11] = system: MDA435 (breast ductal carcinoma); assay: MTS assay, cytotoxicity, MDA435; settings: Homo sapiens, MDA435, read-out: Cytotoxicity (IC50)
Method: as §7, §8, §6

H9c2 cardiomyocytes [12] = system: H9c2 cardiomyocytes
Method: as §2, §3

[13] = cumulative dose of doxorubicin 700 mg/m^2; cited from earlier work
[14] = HCT-116, 72 h, read-out: Inhibition of cell proliferation (IC50)
[15] = MTS, Table 1, read-out: Inhibition of cell proliferation (IC50)
[16] = HCT-15, HCT15, MTS, 72 h, Table 1
[17] = 72 h, read-out: Inhibition of cell proliferation (IC50)
[18] = HL-60, 72 h, read-out: Inhibition of cell proliferation (IC50)
[19] = HL-60, read-out: Cytotoxicity (IC50)

Structure (SMILES)	IC50 [1, 14]	IC50 [2, 15]	IC50 [3, 16]	IC50 (HepG2 (hepatocarcinoma); HepG2, MTS, 72 h, Table 1)	IC50 [4, 17]	IC50 [5, 18]	IC50 ([6]; MCF7, MTS, 72 h, Table 1)	IC50 [7]	IC50 [9]	IC50 (SK-OV3 cells (OV3))	IC50 [5, 19]	IC50 [11]	also measured
COc1ccc([C@@]23Oc4cc(OC)cc(OC)c4[C@]2(O)[C@H](O)C[C@H]3c2ccccc2)cc1 (racemic) [FL1, rocaglaol]	6 nM	4 nM	6 nM	70 nM	2 nM	3 nM	4 nM						
COc1cc(OC)c2c(c1)O[C@@]1(c3ccc(Br)cc3)[C@H](c3ccccc3)C[C@@H](O)[C@@]21O (racemic) [FL3, bromo-demethoxy-rocaglaol]	< 1 nM				< 1 nM	< 1 nM		17 nM	3.8 nM	8.5 nM	5.5 nM	8.7 nM	IC50 ([1]; HCT-116, read-out: Cytotoxicity (IC50)): 7.6 nM; IC50 ([2]; read-out: Inhibition of cell proliferation (IC50)): < 1 nM; IC50 [8]: 4.5 nM; IC50 ([3]; HCT-15, 72 h): 1 nM; IC50 (HepG2 (hepatocarcinoma); HepG2, 72 h): 4 nM; Diminution of the apoptosis induced by doxorubicin (H9c2 cardiomyocytes [10]; 1 nM FL3, 1 μM doxorubicin): 70%; Alleviation of the apoptosis induced by doxorubicin (H9c2 cardiomyocytes [10]; 50 nM FL3, 20 times superior concentration of doxorubicin): 61%; Concentration of maximum inhibition of doxorubicin-induced apoptosis (H9c2 cardiomyocytes [10]; FIG. 8B): 1 nM; Survival rate (mice; Doxorubicin (1 x, 20 mg/kg i.p.) + FL3 (8 x, 0.1 mg/kg i.p.)): 70%; Survival rate (mice; FL3 alone (8 x, 0.1 mg/kg i.p.)): 100%; IC50 ([4]; read-out: Cytotoxicity (IC50)): 15 nM; IC50 ([6]; MCF7, 72 h): 1 nM; Effect on KRIBB3-induced cytotoxicity (H9c2 cardiomyocytes [12]; co-treatment FL3 100 nM with KRIBB3 1 μM): significantly alleviated; Effect on KRIBB3 worsening of doxorubicin cytotoxicity (H9c2 cardiomyocytes [12]; doxorubicin, KRIBB3 and FL3 all together): reversed
COc1cccc2c1C(=O)c1c(O)c3c(c(O)c1C2=O)C[C@@](O)(C(=O)CO)C[C@@H]3O[C@H]1C[C@H](N)[C@H](O)[C@H](C)O1 [Doxorubicin, doxorubicin, reference compound]	6 nM	58 nM	81 nM	240 nM	1 nM	13 nM	12 nM	186 nM	0.047 nM	41 nM	30 nM	3.5 nM	Apoptosis induced (total apoptotic cells) (H9c2 cardiomyocytes [10]; 1 μM doxorubicin for 14 h): 32%; Survival rate (mice; Doxorubicin alone (1 x, 20 mg/kg i.p.)): 30%; Risk of developing congestive heart failure [13]: 48%
COc1ccc([C@@H]2C[C@@H](O)[C@@]3(O)c4c(OC)cc(OC)cc4O[C@@]23c2ccccc2)cc1 [FL4]	> 10000 nM	> 10000 nM	> 10000 nM	> 10000 nM	> 10000 nM	> 10000 nM	> 10000 nM						
CCc1cc(-c2oncc2-c2ccc(OC)cc2)c(O)cc1OC [KRIBB3, reference compound]													Cytotoxicity of KRIBB3 on cardiomyocytes (H9c2 cardiomyocytes [12]; KRIBB3 1 μM, 1 h): induced a cytotoxicity
